According to paper PMC9814779, “A triple farnesoid X receptor and peroxisome proliferator-activated receptor α/δ activator reverses hepatic fibrosis in diet-induced NASH in mice” (Communications Chemistry, 2020):

Tested on: GAN DIO-NASH mice
Assay: DIO NASH model in mice (GAN diet)
Conditions: for animals with fibrosis worsening / animals with improvement in lobular inflammation / animals with reversed fibrosis: animals/group; for inflammatory cells and inflammatory foci in the liver: compared to vehicle; for liver Galectin-3 (Gal3) and liver CD45: markers of inflammation
Method: The DIO NASH model was performed by the contract research organization Gubra (Hørsholm, Denmark) on a fee-for-service basis. All animal experiments were conducted in accordance with Gubra’s bioethical guidelines, which are fully compliant to internationally accepted principles for the care and use of laboratory animals. The animals were checked minimum once daily for signs of abnormal behavior, abnormal locomotor activity, ataxia, or clinical signs of disease (lack of grooming, raised fur, signs of pain upon handling, loss of excessive body weight).
Male C57BL/6JRj mice (purchased from Janvier Labs, France at 5 weeks of age) were used for the study. […] Mice received the Gubra AMLN NASH (GAN; D09100310, Research Diet, US; 40% fat (primarily palm oil), 40% carbohydrate (20% fructose), and 2% cholesterol) diet for 46 weeks before start of the treatment. Prior to treatment, all animals underwent liver biopsy for histological conformation of liver disease (steatosis score ≥2 and fibrosis stage ≥1) using the non-alcoholic fatty liver disease activity scoring (NAS) and fibrosis staging system. Randomization and stratification to treatment was performed according to quantitative collagen staining (PSR). GAN DIO-NASH mice (n = 16 per group) received treatment (PO) with vehicle, OCA (30 mg/kg), or 41 (10 mg/kg, BID) for 12 weeks. Water containing 1% HPMC/Tween 80 (99:1) served as vehicle. Mice were then sacrificed by cardiac puncture under isoflurane anesthesia for histopathological and biochemical analysis.
For pre-biopsies, mice were anesthetized by inhalation anesthesia using isoflurane (2–3%). A small abdominal incision was made in the midline and the left lateral lobe of the liver was exposed. A cone-shaped wedge of liver tissue (approximately 50 mg) was excised from the distal portion of the lobe and fixated in 10% neutral buffered formalin (10%) for histology. The cut surface of the liver was instantly electrocoagulated using bipolar coagulation (ERBE VIO 100 electrosurgical unit). The liver was returned to the abdominal cavity, the abdominal wall was sutured, and the skin was closed with staplers. […] TG, TC, ALT, and AST levels were determined from blood samples collected at week 4 of treatment in heparinized tubes. Plasma was separated and stored at −80 °C until analysis. […] After termination by heart puncture, livers were collected and weighed. Specific liver samples and biopsies were dissected and processed. The liver was divided into left lateral lobe, medial lobe, right lateral lobe, and caudal lobe. The left lateral lobe was used for the pre-biopsy (not applicable at termination). The liver post biopsy (~200 mg, <0.7 × 0.5 cm) was cut 4 mm from the pre-biopsy site and with an edge. The tissue was collected in paraformaldehyde. The medial lobe was sectioned and snap-frozen in liquid nitrogen for later analysis. One piece (25 ± 5 mg) was dissected and used for TG/TC analysis. […] Liver samples were fixed in formalin, paraffin embedded, and sections were stained. For H&E staining, the slides were incubated in Mayer’s Hematoxylin (Dako), washed in tap water, stained in Eosin Y solution (Sigma-Aldrich), […], and cover-slipped. For PSR staining, the slides were incubated in Weigert’s iron hematoxylin (Sigma-Aldrich), washed in tap water, stained in PSR (Sigma-Aldrich), and washed twice in acidified water. Excess water was removed by shaking the slides, and the slides were then dehydrated in three changes of 100% ethanol, cleared in xylene, and cover-slipped. […] Briefly, after antigen retrieval and blocking of endogenous peroxidase activity, slides were incubated with primary antibody. The primary antibody was detected using a polymeric horseradish peroxidase–linker antibody conjugate. Next, the primary antibody was visualized with 3,3′diaminobenzidine as chromogen. Finally, sections were counterstained in hematoxylin and cover-slipped. Samples were scored for NAS following the criteria outlined in[37].

[1] = 41 10 mg/kg b.i.d., OCA 30 mg/kg
[2] = 12 weeks of treatment, 41 10 mg/kg b.i.d., OCA 30 mg/kg
[3] = 12 weeks, 41 10 mg/kg b.i.d., OCA 30 mg/kg

Compound | plasma biochemical parameters after 4 weeks of treatment [1] | plasma ALT, AST and triglycerides (TG) at termination [2] | plasma total cholesterol (TC) at termination (12 weeks of treatment, OCA 30 mg/kg) | liver weight, liver TG and liver TC content [3] | steatosis, hepatic fat content [3] | animals not completing the study (OCA 30 mg/kg, one animal) | animals with fibrosis worsening [3] | animals with improvement in lobular inflammation [3] | animals with reversed fibrosis [3] | inflammatory cells and inflammatory foci in the liver (12 weeks) | liver Galectin-3 (Gal3) and liver CD45 (12 weeks) | food intake and body weight (12 weeks, 41 10 mg/kg b.i.d., vs. OCA or vehicle) | liver picrosirius red (PSR), pre vs. post treatment (after the treatment period, 41 10 mg/kg b.i.d.) | fibrosis markers PSR, Col1a1 and α-SMA (compared to vehicle-treated animals, 12 weeks)
CC[C@H]1[C@@H](O)[C@@H]2[C@H](CC[C@]3(C)[C@@H]([C@H](C)CCC(=O)O)CC[C@@H]23)[C@@]2(C)CC[C@@H](O)C[C@@H]12 [OCA, 6α-ethylchenodeoxycholic acid, reference compound] | reduced total cholesterol (TC) plasma levels | not different between groups | reduced TC levels | lowered liver weight, liver TG, and liver TC | strongly reduced hepatic fat content and steatosis score | found dead during the second week of the treatment phase | 4/15 | 8/15 | 2/15 | decreased the number of inflammatory cells and inflammatory foci | reduced by both treatments | – | – | –
CC(C)(C)c1ccc(C(=O)Nc2cccc(CCC(=O)O)c2)c(NC(=O)c2ccc(-c3ccco3)cc2)c1 [compound 41, 3-(3-[4-{tert-Butyl}-2-{4-(2-furyl)}benzamido]phenyl)propanoic acid] | not significantly different between the groups | not different between groups | – | did not differ from vehicle-treated mice | no pronounced effect on steatosis | – | 1/16 | 5/16 | 6/16 | decreased the number of inflammatory cells and inflammatory foci | reduced by both treatments | no difference in food intake and body weight | significant reduction of liver picrosirius red (PSR) | decreased
